The NIST ThermoML archive (doi:10.1016/j.jct.2004.11.009)

What was measured:
[1] = 101.33 kPa, Liquid
[2] = xn = mol fraction of the nth substance listed; conditions: 101.33 kPa, Liquid, x2 = 0

Cc1cccnc1 [3-methylpyridine]
[1]
Conditions | mass density [kg/m3] | viscosity [mPa·s]
293.15 K | 956 | 0.9459
303.15 K | 946.6 | 0.8318
313.15 K | 937.7 | 0.7352
323.15 K | 928.3 | 0.6565
333.15 K | 919.3 | 0.5936
343.15 K | 910.3 | 0.539

O [water] + Cc1cccnc1
[2]
Conditions | mass density [kg/m3] | viscosity [mPa·s]
293.15 K | – | 1.002
303.15 K | – | 0.7977
313.15 K | – | 0.6532
323.15 K | 988 | 0.547
333.15 K | 983.2 | 0.4665
343.15 K | 977.8 | 0.404
